# Entries after “also recorded” stand apart in the source; their conditions may differ. Counter-ions that a name gives are not always drawn. Like-named read-outs stand apart in the source and are kept apart here. Starred links: 1 amine or outer side, 2 acyl side, 3 side chain; linkers in the order of their positions; H or OH if unused. Positions of bridges follow the written chain, without caps; N, C: chain ends. Non-standard residues stand in square brackets, D forms with d. Residues, ends and D or L forms follow the SMILES beside them. Chains are numbered I, II in the order given. Actinocin(9to1) = Cc1c2oc3c(C)ccc(C(=O)[*:1])c3nc-2c(C(=O)[*:2])c(N)c1=O; NMeV = CN[C@H](C(=O)O)C(C)C; Sar = CNCC(=O)O
# What was measured:
# [1] = system: HIV-1 LTR Tat dependent transcription; assay: cells; conditions: Human immunodeficiency virus 1, TZM-bl, read-out: % Inhibition at 1 μM
# [2] = system: VEEV TC-83; assay: microbe, parasite or virus in culture; type: cell-based, Venezuelan Equine Encephalitis Virus; conditions: for effect on VEEV induced CPE: 1 μM, 48 hours post infection
# [3] = system: U87MG astrocytes; conditions: for cellular viability of BIO analogs: 1 μM
# [4] = system: VEEV TC-83; type: cell-based, Venezuelan Equine Encephalitis Virus; conditions: 1 μM
# [5] = system: HIV-1 LTR Tat dependent transcription; conditions: TZM-bl cells transfected with Tat, compared to the DMSO control
# [6] = system: VEEV TC-83; type: in vivo, C3H/HeN mice; conditions: for survival rate: SQ days −1, 1, 3, 5, BIO 50 mg/kg, BIOder 20 mg/kg, 14 days, vehicle 10%; for survival differential: vs vehicle control
# [7] = system: Rat mixed hippocampal cultures exposed to Tat1-72; assay: Tat neurotoxicity in rat mixed hippocampal cultures (MTT); type: cell-based; conditions: for protection against Tat mediated neurodegeneration: 1.0 and 3.0 uM, p<0.05, 500 nM Tat1-72, 18 hours; for neurotoxicity: 5.0 and 10.0 uM
# Experimental: After approximately 18 hours, cell survival may be measured by MTT assay. Statistical significance may be determined by ANOVA, followed by Newman-Keuls post hoc pair-wise comparisons.
# In some aspects of embodiments, rat mixed hippocampal cultures may be preincubated with BIO prior to exposure to Tat. Cell death may be analyzed approximately 18 hours after Tat exposure by MTT assay.
# [8] = system: survivin, BID; type: cell-based
# [9] = target: T1, GSK-3β (Homo sapiens, UniProt P49841); type: biochemical; set-up: Cells may be lysed and immunoprecipitated with control IgG and/or GSK-3β antibody; endogenous in cells
# Target sequence in this assay (P49841 whole entry, looked up): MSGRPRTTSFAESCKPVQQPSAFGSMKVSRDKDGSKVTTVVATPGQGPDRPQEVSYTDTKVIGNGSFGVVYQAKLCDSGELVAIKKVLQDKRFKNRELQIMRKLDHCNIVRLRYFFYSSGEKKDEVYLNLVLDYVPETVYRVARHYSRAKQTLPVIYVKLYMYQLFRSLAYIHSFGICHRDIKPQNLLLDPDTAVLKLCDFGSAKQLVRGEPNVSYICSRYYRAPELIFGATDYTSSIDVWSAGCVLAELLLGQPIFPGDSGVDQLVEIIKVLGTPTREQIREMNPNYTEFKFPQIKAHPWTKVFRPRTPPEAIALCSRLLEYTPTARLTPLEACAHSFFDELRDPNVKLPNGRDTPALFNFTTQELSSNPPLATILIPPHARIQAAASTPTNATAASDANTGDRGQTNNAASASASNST
# [10] = system: monocyte/macrophage from two healthy donors and U87MG; assay: MTT toxicity in monocyte/macrophages and U87MG; type: cell-based; conditions: primary cells or cell line
# [11] = system: HIV-1 dual tropic 89.6; assay: HIV-1 89.6 replication in U87MG cells (RT assay); type: cell-based; conditions: Human immunodeficiency virus 1, U-87 MG, 168 h; 89.6 infection, RT day 7
# [12] = in vivo
# [13] = target: T1, GSK-3β; assay: GSK-3β immunoprecipitation in vitro kinase assay (U937 cells)
# Target sequence in this assay (P49841 whole entry): as the sequence (P49841 whole entry, looked up) above
# [14] = system: VEEV TC-83; assay: microbe, parasite or virus in culture; type: cell-based; conditions: Venezuelan equine encephalitis virus, U-87 MG, read-out: IC50, VEEV replication
# [15] = system: HIV-rtTA KWK (Tat+) and KYK (Tat−) clones; assay: dox-dependent HIV-rtTA variants (KWK, KYK) in macrophages, RT assay; type: cell-based, HIV-1; conditions: BIOder 50 nM, dox 1000 ng/ml, RT day 10
# [16] = system: HIV-1 dual tropic 89.6; assay: HIV-1 89.6 replication in primary monocyte/macrophages (RT assay); type: cell-based; conditions: Human immunodeficiency virus 1, Primary macrophage, 168 h; 89.6 infection, RT day 7
# [17] = in vitro; conditions: human
smiles,measurement,setting,value
C=C[C@H]1CN2CC[C@H]1C[C@H]2[C@H](OC(=O)OCC)c1ccnc2ccc(OC)cc12 [Quinine ethyl carbonate],inhibition at 1 µM,[1],34%
"Cc1ccc2c(c1Br)C(=NNc1ccccc1)C(=O)N2 [Compound 17, 4-bromo-5-methyl-1H-indole-2,3-dione 3-(phenylhydrazone)]",effect on VEEV induced CPE,[2],inhibit CPE
"O=C1Nc2ccc(Br)cc2/C1=N/NC(=O)c1ccc(Cl)cc1Cl [Compound 16, N′-(5-bromo-2-oxo-1,2-dihydro-3H-indol-3-ylidene)-2,4-dichlorobenzohydrazide]",cellular viability of BIO analogs,[3],decrease in cellular viability
"O=C1Nc2ccc(Br)cc2/C1=N\NC(=O)c1ccccc1NC(=O)c1ccccc1 [Compound 31, N-(2-{[2-(5-bromo-2-oxo-1,2-dihydro-3H-indol-3-ylidene)hydrazino]carbonyl}phenyl)benzamide]",effect on VEEV induced CPE,[2],inhibit CPE
"Cc1ccc2c(c1Br)/C(=N/NC(=O)Nc1ccccc1)C(=O)N2 [Compound 5, 4-bromo-5-methyl-1H-indole-2,3-dione 3-(N-phenylsemicarbazone)]",effect on VEEV induced CPE,[2],increase observed CPE
"Cc1[nH]c2ccc(Br)cc2c1CC(=O)N/N=C1/C(=O)Nc2ccccc21 [Compound 21, 2-(5-bromo-2-methyl-1H-indol-3-yl)-N′-(2-oxo-1,2-dihydro-3H-indol-3-ylidene)acetohydrazide]",effect on VEEV (FIG. 11),[4],VEEV activators
COc1cccc2c1C(=O)c1c(O)c3c(c(O)c1C2=O)C[C@@](O)(C(=O)CO)C[C@@H]3O[C@H]1C[C@H](N)[C@@H](O)[C@H](C)O1 [Epirubicin hydrochloride],inhibition at 1 µM,[1],17%
"O=C1Nc2c(Br)cc(Br)cc2/C1=N/NC(=O)c1cc(-c2ccccc2)n[nH]1 [Compound 24, N′-(5,7-dibromo-2-oxo-1,2-dihydro-3H-indol-3-ylidene)-3-phenyl-1Hpyrazole-5-carbohydrazide]",effect on VEEV induced CPE,[2],increase observed CPE
"Cc1c(Cl)ccc2c1NC(=O)/C2=C1/C(=O)Nc2ccccc21 [Compound 38, 6-chloro-7-methyl-3,3′-biindole-2,2′(1H,1′H)-dione]",effect on VEEV (FIG. 11),[4],VEEV activators
O=C1Nc2ccccc2/C1=C1/Nc2ccccc2/C1=N\O [Indirubin-3′-oxime],% Inhibition at 1 μM,[5],25%
"Cc1c2oc3c(C)ccc(C(=O)N[C@@H]4C(=O)N[C@H](C(C)C)C(=O)N5CCC[C@H]5C(=O)N(C)CC(=O)N(C)[C@@H](C(C)C)C(=O)O[C@@H]4C)c3nc-2c(C(=O)N[C@@H]2C(=O)N[C@H](C(C)C)C(=O)N3CCC[C@H]3C(=O)N(C)CC(=O)N(C)[C@@H](C(C)C)C(=O)O[C@@H]2C)c(N)c1=O [Dactiniomycin, Dactinomycin] (I: T[dV]P[Sar][NMeV] / II: T[dV]P[Sar][NMeV]; ester I:1-I:C, II:1-II:C; linker I:N-II:N via Actinocin(9to1))",inhibition at 1 µM,[1],98%
"O=C1NC(=O)/C(=C2/C(=O)Nc3ccc(Br)cc32)N1 [Compound 33, 5-(5-bromo-2-oxo-1,2-dihydro-3H-indol-3-ylidene)-2,4-imidazolidinedione]",cellular viability of BIO analogs,[3],decrease in cellular viability
"O=C1Nc2cc(Br)ccc2/C1=C1/Nc2ccccc2/C1=N\O [BIO, 6-bromoindirubin-3′-oxime, reference compound]",survival rate,[6],~30%
same,survival differential,[6],approximately 20%
same,protection against Tat mediated neurodegeneration,[7],significant neuroprotective effects
same,neurotoxicity,[7],neurotoxicity observed
same,LD50 (neurotoxicity),[7]; rat mixed hippocampal cultures,approximately 4 uM
same,survivin expression,[8],relatively increase survivin expression
"Cc1cc2c(cc1Br)NC(=O)/C2=N/N=C1/C(=O)Nc2cc(Br)c(C)cc21 [Compound 6, 6-bromo-5-methyl-1H-indole-2,3-dione 3-[(6-bromo-5-methyl-2-oxo-1,2-dihydro-3H-indol-3-ylidene)hydrazone]]",GSK3-β kinase activity,[9],much more relatively dramatic influence
same,Cytotoxic concentration (MTT),[10],> 10 µM
same,IC50,[11],~0.5 nM
same,mouse weight,[12],substantially no treatment group showed weight loss
same,"signs of toxicity (lethargy, ruffling of coats, weight loss)",[12]; mouse,Substantially no signs of toxicity
same,survival rate,[6],approximately 50%
same,survival differential,[6],approximately 40%
same,IC50,[13],~0.03 nM
same,inhibition of GSK-3β kinase activity,"[13]; at approximately 1 nM, glycogen synthase peptide 2 substrate",approximately 90%
same,protection against Tat mediated neurodegeneration,[7],protective effect
same,neurotoxicity,[7],no neurotoxicity observed
same,cellular viability,[3],no substantial effect on cellular viability
same,BID expression,[8],relatively strong decrease
same,survivin expression,[8],relative increase in the expression of survivin
same,IC50,[14],~500 nM
same,viral replication of KWK (Tat+) and KYK (Tat−) clones,[15],inhibited in the KWK (Tat+) and not KYK (Tat−) clone
same,IC50,[16],~4 nM
same,CC50,[17],> 100000 nM
same,effect on VEEV induced CPE,[2],inhibit CPE; also recorded: particularly strong inhibition
same,cellular viability of VEEV infected cells,"[2]; 72 hours post-infection, all concentrations employed",relative increase in cellular viability
same,IC50,"[2]; Venezuelan equine encephalitis virus, U-87 MG, read-out: IC50 for inhibition of VEEV induced CPE",< 100 nM
"Cc1cc(C(=O)N/N=C2\C(=O)Nc3ccc(Br)cc32)[nH]n1 [Compound 32, N′-(5-bromo-2-oxo-1,2-dihydro-3H-indol-3-ylidene)-3-methyl-1Hpyrazole-5-carbohydrazide]",cellular viability of BIO analogs,[3],decrease in cellular viability
"O=C1Nc2ccc(Cl)cc2/C1=C1\C(=O)Nc2ccc(Br)cc21 [Compound 34, 5-bromo-5′-chloro-3,3′-biindole-2,2′(1H,1′H)-dione]",cellular viability of BIO analogs,[3],decrease in cellular viability
"Cc1ccc2c(c1Br)/C(=N/O)C(=O)N2 [Compound 4, 4-bromo-5-methyl-1H-indole-2,3-dione 3-oxime]",effect on VEEV (FIG. 11),[4],VEEV activators
"COc1ccc(-c2cc(C(=O)N/N=C3/C(=O)Nc4ccc(Br)cc43)[nH]n2)cc1 [Compound 28, N′-(5-bromo-2-oxo-1,2-dihydro-3H-indol-3-ylidene)-3-(4-methoxyphenyl)-1H-pyrazole-5-carbohydrazide]",effect on VEEV induced CPE,[2],inhibit CPE

# Reference: patent publication US20120190723A1, “VIRAL MODULATORS AND PROCESSES THEREOF” (priority 2010, published 2012)
